From patent publication US7105492B2, “Camptothecin derivatives having antitumor activity” (priority 1999, dated 2006)

Tests used:
HT29 colon ca = assay: Antitumor activity on tumor models: HT29; assay type: in vivo, mice
Excerpt: (§1) This broad spectrum of anticancer activity was confirmed in mice transplanted with human tumor xenografts, including NSCLC (H460, A549), prostate ca. (JCA-1), glioblastoma (GBM/7), gastric ca. (MKN28), osteosarcoma (U2OS), ovarian ca. (A2780/Dx, A2780/DDP) and colon (HT29, CoBA) carcinomas as well as in murine lung cancer (M109) and leukaemia model (L1210).

CoBA colon ca = assay: Antitumor activity on tumor models: CoBA; assay type: in vivo, mice
Excerpt: as §1

lung carcinoma NCI H460 = assay: Antitumoral activity in nude mice implanted s.c. with NCI H460 tumour fragments (Table 1); conditions: for Efficacy (TVI %): evaluated 5–10 days after the last treatment
Procedure: For the in vivo studies, the solubilization was carried out in 10% DMSO in bidistilled water, being impossible the solubilization in saline, and the administration for the oral route was carried out at a volume of 10 ml/kg.
Atimic nu/nu Swiss mice (Charles River, Calco, Italia), ageing 10–12 weeks were used. The animals were maintained in laminar flow rooms, according to the guidelines of the United Kingdom Co-ordination Committee Cancer Research. Experimental protocols were approved by the Ethical Committee for animal experimentation of Istituto Nazionale per lo Studio e Cura dei Tumori.
Tumour fragments of about 2×2×2 mm coming from mice to which were inoculated s.c. 10^6 cells NCI H460/topo, were implanted s.c. bilaterally in groups of 5 mice each.
Twice a week, using a Vernier caliper, the width, minimum diameter (l), length and maximum diameter (L) of the tumors were measured, in mm. The tumour volume (mm^3) was calculated according to the formula I^2×L/2. Efficacy of the molecule was evaluated as TVI percent of the treated group versus the control group according to the formula TVI%=100−(T/C×100), wherein T is the mean value of the tumour volume of the treated group and C of control one.

L1210 = murine leukemia = assay: Antitumor activity on tumor models: L1210 leukemia, increase in life span; assay type: in vivo, mice
Excerpt: as §1

JCA-1 prostate ca = assay: Antitumor activity on tumor models: JCA-1; assay type: in vivo, mice
Excerpt: as §1

GBM/7 glioblastoma = assay: Antitumor activity on tumor models: GBM/7; assay type: in vivo, mice
Excerpt: as §1

topoisomerase i = biological target: T1, topoisomerase i (Homo sapiens, UniProt P11387); assay: Persistence of topoisomerase I-mediated DNA cleavage after addition of 0.6 M NaCl; assay type: biochemical; conditions: for Reversibility / persistence of the DNA cleavages (in words): after sodium chloride (0.6 M), about 10 minutes; for PERSISTENCE (%) of DNA cleavage on selected sites: drug 10 μm, 20 minutes incubation, then sodium chloride (0.6 M), examined after about 10 minutes
T1 sequence (P11387 1-765): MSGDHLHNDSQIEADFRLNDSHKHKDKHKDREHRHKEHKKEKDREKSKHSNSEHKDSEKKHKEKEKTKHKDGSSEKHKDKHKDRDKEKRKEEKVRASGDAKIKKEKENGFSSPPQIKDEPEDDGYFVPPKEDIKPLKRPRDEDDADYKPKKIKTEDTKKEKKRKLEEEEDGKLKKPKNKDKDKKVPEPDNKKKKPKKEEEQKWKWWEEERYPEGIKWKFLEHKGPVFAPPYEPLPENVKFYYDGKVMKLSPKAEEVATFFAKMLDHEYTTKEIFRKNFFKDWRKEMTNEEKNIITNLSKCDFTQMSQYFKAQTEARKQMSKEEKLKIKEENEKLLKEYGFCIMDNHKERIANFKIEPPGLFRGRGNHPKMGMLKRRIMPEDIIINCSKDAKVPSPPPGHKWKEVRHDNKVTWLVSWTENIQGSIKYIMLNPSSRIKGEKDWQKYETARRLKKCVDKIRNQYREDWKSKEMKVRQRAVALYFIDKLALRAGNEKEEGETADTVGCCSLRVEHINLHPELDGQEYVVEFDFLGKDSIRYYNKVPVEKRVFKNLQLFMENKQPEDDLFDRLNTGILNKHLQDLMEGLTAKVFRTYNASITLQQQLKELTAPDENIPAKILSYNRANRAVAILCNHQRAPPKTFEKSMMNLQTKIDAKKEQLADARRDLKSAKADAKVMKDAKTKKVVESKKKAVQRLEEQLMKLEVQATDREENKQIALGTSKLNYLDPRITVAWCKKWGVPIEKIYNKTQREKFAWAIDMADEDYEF
Procedure: An important drawback of conventional camptothecins is the reversibility of the their bond in the ternary complex (drug-DNA-enzyme).
After 20 minutes of incubation of the drug in the reaction mixture containing labelled DNA and the purified enzyme, sodium chloride (0.6 M) was added with the scope of assisting the dissociation of the ternary complex.

H460 = NSCLC = assay: Antitumor activity on tumor models: H460; assay type: in vivo, mice
Excerpt: as §1

A2780 ovarian ca = assay: Antitumor activity on tumor models: A2780; assay type: in vivo, mice; conditions: A2780, 2 mg/kg
Excerpt: as §1

A2780/Dx ovarian ca = assay: Antitumor activity on tumor models: A2780/Dx; assay type: in vivo, mice; conditions: for TVI % / no evidence of tumor at the end of the treatment lasting for about 10 days from the last administration: A2780/Dx
Excerpt: as §1
The high cytotoxic potency of the compounds of the present invention, herein represented in an exemplary way with one of the preferrred compounds, CPT 184, is also reflected by the potent antitumor activity. […] Moreover, the compounds of the present invention, in particular the CPT 184, were able to induce 100% CR in the A2780/DX tumor characterized by a MDR-phenotype.

U87 glioblastoma = assay: Antitumor activity on tumor models: U87; assay type: in vivo, mice
A2780/DDP ovarian ca = assay: Antitumor activity on tumor models: A2780/DDP; assay type: in vivo, mice
Excerpt: as §1

IGROV-1 ovarian ca = assay: Antitumor activity on tumor models: IGROV-1; assay type: in vivo, mice
DU145 prostate ca = assay: Antitumor activity on tumor models: DU145; assay type: in vivo, mice; conditions: DU145, 2 mg/kg

SMILES: CC[C@@]1(O)C(=O)OCc2c1cc1n(c2=O)Cc2c-1nc1ccccc1c2C=NOCc1ccccc1 [CPT 172, 7-Benzyloxyiminomethylcamptothecin]
- TVI % (HT29 colon ca; HT29, 25 mg/kg): 88%
- TVI % (CoBA colon ca; 20 mg/kg): 84%
- TVI % (CoBA colon ca; 25 mg/kg): 93%
- Toxicity Body weight loss (%) (lung carcinoma NCI H460; 2 mg/kg p.o., qd × 5 × 10w): 0%
- Toxicity Lethality (lung carcinoma NCI H460; 2 mg/kg p.o., qd × 5 × 10w): 0/3
- Efficacy (TVI %) (lung carcinoma NCI H460; 2 mg/kg p.o., qd × 5 × 10w): 90%
- Efficacy (TVI %) (lung carcinoma NCI H460; 8 mg/kg p.o., q4d × 4): 77%
- Efficacy (TVI %) (lung carcinoma NCI H460; 16 mg/kg p.o., q4d × 4): 88%
- Toxicity Body weight loss (%) (lung carcinoma NCI H460; 24 mg/kg p.o., q4d × 4): 6%
- Toxicity Lethality (lung carcinoma NCI H460; 24 mg/kg p.o., q4d × 4): 0/4
- Efficacy (TVI %) (lung carcinoma NCI H460; 24 mg/kg p.o., q4d × 4): 97%
- ILS % = percent increase in life span (L1210 = murine leukemia; L1210, 25 mg/kg): > 400%
- TVI % (JCA-1 prostate ca; JCA-1, 20 mg/kg): 98%
- TVI % (GBM/7 glioblastoma; GBM/7, 20 mg/kg): 93%
- no evidence of tumor at the end of the treatment lasting for about 10 days from the last administration (GBM/7 glioblastoma; GBM/7, 20 mg/kg): (3/11*)
- TVI % (GBM/7 glioblastoma; GBM/7, 25 mg/kg): 98%
- no evidence of tumor at the end of the treatment lasting for about 10 days from the last administration (GBM/7 glioblastoma; GBM/7, 25 mg/kg): (9/12*)
- Reversibility / persistence of the DNA cleavages (in words) (topoisomerase i): marked persistence
- PERSISTENCE (%) of DNA cleavage on selected sites (topoisomerase i): 80%
- TVI % (H460 = NSCLC; H460, 25 mg/kg): 97%

SMILES: CC[C@@]1(O)C(=O)OCc2c1cc1n(c2=O)Cc2c-1nc1ccccc1c2C=NO [CPT 181, 7-hydroxyiminomethylcamptothecin, reference compound]
- Toxicity Body weight loss (%) (lung carcinoma NCI H460; 15 mg/kg p.o., q4d × 4): 0%
- Toxicity Lethality (lung carcinoma NCI H460; 15 mg/kg p.o., q4d × 4): 0/4
- Efficacy (TVI %) (lung carcinoma NCI H460; 15 mg/kg p.o., q4d × 4): 40%
- Toxicity Body weight loss (%) (lung carcinoma NCI H460; 25 mg/kg p.o., q4d × 4): 0%
- Toxicity Lethality (lung carcinoma NCI H460; 25 mg/kg p.o., q4d × 4): 0/4
- Efficacy (TVI %) (lung carcinoma NCI H460; 25 mg/kg p.o., q4d × 4): 70%
- PERSISTENCE (%) of DNA cleavage on selected sites (topoisomerase i): 28%

SMILES: CC[C@@]1(O)C(=O)OCc2c1cc1n(c2=O)Cc2c-1nc1ccccc1c2C=NOC(C)(C)C [CPT 184, 7-T-Butoxyiminomethylcamptothecin]
- TVI % (HT29 colon ca; HT29, 2 mg/kg): 92%
- TVI % (A2780 ovarian ca): 100%
- no evidence of tumor at the end of the treatment lasting for about 10 days from the last administration (A2780 ovarian ca): (1/8*)
- CR (complete regressions) induced (A2780/Dx ovarian ca; A2780/DX tumor characterized by a MDR-phenotype): 100%
- TVI % (A2780/Dx ovarian ca; 2 mg/kg): 92%
- no evidence of tumor at the end of the treatment lasting for about 10 days from the last administration (A2780/Dx ovarian ca; 2 mg/kg): (1/8*)
- TVI % (A2780/Dx ovarian ca; 3 mg/kg): 100%
- no evidence of tumor at the end of the treatment lasting for about 10 days from the last administration (A2780/Dx ovarian ca; 3 mg/kg): (8/8*)
- TVI % (U87 glioblastoma; U87, 2 mg/kg): 80%
- TVI % (U87 glioblastoma; U87, 3 mg/kg): 87%
- TVI % (CoBA colon ca; 2 mg/kg): 84%
- TVI % (CoBA colon ca; 3 mg/kg): 87%
- Toxicity Body weight loss (%) (lung carcinoma NCI H460; 2 mg/kg p.o., q4d × 4): 0%
- Toxicity Lethality (lung carcinoma NCI H460; 2 mg/kg p.o., q4d × 4): 0/5
- Efficacy (TVI %) (lung carcinoma NCI H460; 2 mg/kg p.o., q4d × 4): 100%
- Toxicity Body weight loss (%) (lung carcinoma NCI H460; 5 mg/kg p.o., q10d × 6): 9%
- Toxicity Lethality (lung carcinoma NCI H460; 5 mg/kg p.o., q10d × 6): 0/4
- Efficacy (TVI %) (lung carcinoma NCI H460; 5 mg/kg p.o., q10d × 6): 99%
- ILS % = percent increase in life span (L1210 = murine leukemia; L1210, 2 mg/kg): > 400%
- cured mice alive 120 d from leukemia injection (L1210 = murine leukemia; L1210, 2 mg/kg): *** (>80% of cured mice alive 120 d from leukemia injection.)
- TVI % (JCA-1 prostate ca; JCA-1, 2 mg/kg): 98%
- no evidence of tumor at the end of the treatment lasting for about 10 days from the last administration (JCA-1 prostate ca; JCA-1, 2 mg/kg): (5/8*)
- TVI % (A2780/DDP ovarian ca; 2 mg/kg): 77%
- TVI % (A2780/DDP ovarian ca; 3 mg/kg): 90%
- TVI % (GBM/7 glioblastoma; GBM/7, 2 mg/kg): 97%
- no evidence of tumor at the end of the treatment lasting for about 10 days from the last administration (GBM/7 glioblastoma; GBM/7, 2 mg/kg): (3/10*)
- TVI % (GBM/7 glioblastoma; GBM/7, 3 mg/kg): 98%
- no evidence of tumor at the end of the treatment lasting for about 10 days from the last administration (GBM/7 glioblastoma; GBM/7, 3 mg/kg): (2/8*)
- Reversibility / persistence of the DNA cleavages (in words) (topoisomerase i): marked persistence
- PERSISTENCE (%) of DNA cleavage on selected sites (topoisomerase i): 72%
- TVI % (IGROV-1 ovarian ca; IGROV-1, 2 mg/kg): 93%
- TVI % (IGROV-1 ovarian ca; IGROV-1, 3 mg/kg): 96%
- TVI % (H460 = NSCLC; H460, 2 mg/kg): 99%
- no evidence of tumor at the end of the treatment lasting for about 10 days from the last administration (H460 = NSCLC; H460, 2 mg/kg): (5/8*)
- TVI % (DU145 prostate ca): 95%
